# Results published in US11660258B2, “Alcohol containing non-antimicrobial cleansing composition” (GOJO Industries, Inc., priority 2017, dated 2023).
# Assays:
# human skin [1] = test: Forearm controlled application test (FCAT), skin hydration by Corneometer
# Method: (§1) Topical compositions were tested on skin samples for their ability to improve or maintain skin hydration and limit transepidermal water loss (TEWL). Measurement of the TEWL, expressed in grams per square meter and per hour, is used for studying the water barrier function of the human skin. The more perfect the skin protective coat, the higher the water content and the lower the TEWL. For each of the tests, a negative control was used, which included treatment with 8% SLS. An untreated skin sample was also tested for comparison. The tests were performed using the forearm controlled application test (FCAT) methodology. The various samples were applied to test sites on a forearm over the course of several days. On each day, up to six applications were made and the change in TEWL and hydration levels were recorded. The hydration levels were measured using a Corneometer® based on capacitance measurement of a dielectric medium. The Corneometer® measures the change in the dielectric constant due to skin surface hydration changing the capacitance of a precision capacitor. The measurement can detect even slight changes in the hydration level.
# (§2) The compositions that were tested include the following, in weight %, based on the weight of the total composition: […]
# human skin [2] = test: Forearm controlled application test (FCAT), transepidermal water loss (TEWL)
# Method: as §1, §2
# [3] = Example 2, wet and dry application, after 3 and 5 days of treatment
structure (smiles),measurement,setting,value
"CCCCCCCCCCCCOS(=O)(=O)[O-].[Na+] [negative control, sodium lauryl sulfate]",hydration levels (change vs baseline),"human skin [1]; Example 1, FIG. 5, up to six applications per day over several days",lowest hydration levels
same,change in hydration levels,human skin [1]; [3],significant reduction in hydration level
same,TEWL (change vs baseline),"human skin [2]; Example 1, FIG. 6, up to six applications per day over several days",highest TEWL
same,change in TEWL,human skin [2]; [3],significant TEWL
